Experimental data reported in patent US9580749B2, “Dyes and labeled molecules” (Biotium, Inc., priority 2005, dated 2017).
“Also recorded” adds a separate entry of the source.

Key:
salmon sperm DNA = assay: Absorbance and fluorescence emission spectra of dyes without or with DNA in PBS buffer; format: physicochemical; details: for red shift of absorbance upon binding to DNA, relative to free dye: 2 mg/ml salmon sperm DNA; for red shift of absorbance upon binding to DNA, relative to free dye / spectra of the free dyes: intramolecular H-dimer (hairpin) formation: PBS buffer; for spectra of the free dyes: intramolecular H-dimer (hairpin) formation: FIG. 5
Description: The spectra were normalized to 1 in the absorbance plot. […] The heterodimeric dye AORO-7 comprises a monomeric AO dye and a fluorescent non-nucleic acid rosamine RO dye. Two emission peaks, contributed by AO and RO moieties, respectively, were recorded.

[1] = Thermo-stability of dye at 96° C. in PCR reaction buffers with PCR products; format: physicochemical; details: 96° C. for 40 minutes
Description: Specifically, AOAO-12 was kept in PCR reaction buffers with PCR products. The mixture was heated to 96° C. for 40 minutes. During the heating course, the mixture was brought down to 60° C. briefly to monitor the fluorescence.

[2] = system: amplicons HMBS, RPL4, SDHA, TBP; assay: Melting curves of amplicons after qPCR; format: biochemical; details: for melting peaks of the HMBS amplification reaction (primer dimer): HMBS amplicon, FIG. 15
Description: SYBR Green I was reported to be advantageous in that the melting temperature of an amplicon could be detected after qPCR amplification. The melting temperature provides valuable information about the amplicon, as it is a function of the size and GC content of the amplicon. No melting temperatures could be collected from TaqMan reactions. Melting curves from four amplicons, i.e., HMBS (SEQ ID NO: 4), RPL4 (SEQ ID NO: 5), SDHA (SEQ ID NO: 6), and TBP (SEQ ID NO: 7) were measured from reactions amplified in the presence of AOAO-12 (Panel A) or SYBR Green (Panel B) and are presented in FIG. 15.
It has been reported that qPCR reactions with SYBR Green I tend to form primer-dimers, and the tendency is closely related to the concentration of SYBR Green I. It has been postulated that SYBR Green I binds to DNA so tightly that it interferes with the performance of Taq DNA polymerase. As AOAO-12 has less affinity to DNA, the interference should be alleviated.

[3] = system: salmon sperm DNA or a mixture of single-stranded 20mer oligonucleotide; assay: Fluorescence of AOAO-12 in response to different amounts of DNA (microtiter plate reader); format: binding; details: 0.1 μM dye in PBS
Description: It can be seen that fluorescence linearly responded to DNA up to 2.0 μg/ml (inset). At higher concentrations of DNA, the response became non-linear.

PCR reaction = assay: Real-time PCR (qPCR) amplification of ATPB fragment in pTOPO plasmid with a fluorescent monitoring dye; format: biochemical; details: for inhibition of PCR (Ct delay) by the dye: increasing dye concentration
Description: The thermal regimen was set at 95° C. for 1 minute followed by 50 cycles of 15-second duration at 95° C., of 15-second duration at 55° C., and of 15-second duration at 72° C. Fluorescence was measured at the 55° C. stage.

nucleic acid = details: cited from earlier work
[4] = stored in Tris buffer at 4° C.; cited from earlier work

SMILES: CN(C)CCC[n+]1c2cc(N(C)C)ccc2cc2ccc(N(C)C)cc21.[I-] [DMAO]
- red shift of absorbance upon binding to DNA, relative to free dye (salmon sperm DNA): 10 nm

SMILES: CN(C)c1ccc2cc3ccc(N(C)C)cc3[n+](CCCCCC(=O)NCCCCCNC(=O)CCCCC[n+]3c4cc(N(C)C)ccc4cc4ccc(N(C)C)cc43)c2c1 [AOAO-7]
- red shift of absorbance upon binding to DNA, relative to free dye (salmon sperm DNA): 5 nm
- new shorter wavelength peak in absorbance (salmon sperm DNA; free dye in PBS buffer, without DNA): 471 nm

SMILES: CN(C)c1ccc2cc3ccc(N(C)C)cc3[n+](CCCCCC(=O)NCCOCCNC(=O)CCCCC[n+]3c4cc(N(C)C)ccc4cc4ccc(N(C)C)cc43)c2c1 [AOAO-12]
- stability (fluorescence monitored at 60° C.) [1]: stable at 96 °C for 40 minutes substantially without loss of fluorescence
- melting peaks of the HMBS amplification reaction (primer dimer) [2]: only a single, clean, and specific peak
- melting temperatures of amplicons relative to SYBR Green I ([2]; four amplicons, lower than SYBR Green I): about 2 degrees
- DNA binding affinity ([2]; relative to SYBR Green I): binds DNA with high affinity but less tightly than SYBR Green I
- height of melting peaks ([2]; relative to SYBR Green I): markedly higher
- DNA concentration up to which fluorescence responded linearly [3]: up to 2.0 μg/ml
- fluorescence bound to double stranded versus single stranded DNA [3]: fluoresces more intensely when bound to double stranded DNA than when bound to single stranded DNA
- final fluorescence signal strength relative to SYBR Green I (PCR reaction; qPCR, dye at higher usable concentration): several folds higher; also recorded: several times higher
- inhibition of PCR (Ct delay) by the dye (PCR reaction; qPCR): without exhibiting inhibition; also recorded: little or no inhibition

SMILES: CN1/C(=C/c2cc[n+](CCC[N+](C)(C)CCC[N+](C)(C)CCC[n+]3ccc(/C=C4\Sc5ccccc5N4C)c4ccccc43)c3ccccc23)Sc2ccccc21.[I-].[I-].[I-].[I-] [TOTO-1, reference compound]
- inhibition of PCR (Ct delay) by the dye (PCR reaction; qPCR): completely inhibited the PCR reaction
- spectra of the free dyes: intramolecular H-dimer (hairpin) formation (salmon sperm DNA; without DNA): has less spectral shift

SMILES: CN(C)c1ccc2cc3ccc(N(C)C)cc3nc2c1 [AO, acridine orange]
- absorption wavelength λabs (nucleic acid; DNA bound): 500 nm
- affinity for nucleic acid (nucleic acid): very low
- extinction coefficient (nucleic acid; in M-1·cm-1 (unit assumed)): > 50,000

SMILES: CC1=CC(C)(C)Nc2cc3c(cc21)C(c1ccc(C(=O)NCCCCCC(=O)NCCCCCNC(=O)CCCCC[n+]2c4cc(N(C)C)ccc4cc4ccc(N(C)C)cc42)cc1)=c1cc2c(cc1O3)=NC(C)(C)C=C2C [AORO-7]
- absorption peak of rosamine dye component (salmon sperm DNA): 600 nm
- emission peak of rosamine dye component (salmon sperm DNA): ~620 nm
- absorption peak of AO component (salmon sperm DNA; DNA): 503 nm
- emission peak of AO component (salmon sperm DNA; DNA): 523 nm

SMILES: C[n+]1c(C=C2C=CN(CCCCCC(=O)NCCNC(=O)CCCCCN3C=CC(=Cc4sc5ccccc5[n+]4C)c4ccccc43)c3ccccc32)sc2ccccc21 [TOTO-3]
- spectra of the free dyes: intramolecular H-dimer (hairpin) formation (salmon sperm DNA; without DNA): forms an intramolecular H-dimer, or a hairpin structure

SMILES: C[n+]1c(C=C2C=CN(CCCCCC(=O)CNCCOCCNC(=O)CCCCCN3C=CC(=Cc4sc5ccccc5[n+]4C)c4ccccc43)c3ccccc32)sc2ccccc21 [TOTO-12]
- Ct and fluorescence intensity in qPCR relative to TO (PCR reaction; FIG. 11): improved Ct and improved fluorescence intensity relative to TO

SMILES: CCCN(CCCN(C)C)c1cc(/C=C2/Sc3ccccc3N2C)c2ccccc2[n+]1-c1ccccc1 [SYBR Green I, reference compound]
- melting peaks of the HMBS amplification reaction (primer dimer) [2]: has an extra primer dimer peak
- inhibition of PCR (Ct delay) by the dye (PCR reaction; qPCR): exhibited inhibition to PCR reactions; also recorded: significantly inhibits PCR at higher dye concentration
- chemical stability on storage [4]: decomposes significantly over the course of a few days

SMILES: CN(C)c1ccc2cc3ccc(=[N+](C)C)cc-3oc2c1.[Cl-] [pyronin Y]
- absorption maximum (nucleic acid): 548 nm
- emission maximum (nucleic acid): 565 nm
